Values after ≈ are worked out from the molar mass of the structure shown. Read-outs that look alike come from different tables or passages of the source.
Tests used:
Assay type in all cases: cell-based
Gram - = assay: MIC test, average over the 15 gram-negative test germs; conditions: 24 h
Procedure: (§1) As to the antibacterial activity, there was determined the Least (Minimum) Inhibiting Concentration (MIC), by working according to the following operative conditions.
(§2) There were used suspensions of test germs (5 gram-positive and 15 gram-negative) having a known titre, kept freezed at -80°C and diluted, at the time of use, in peptonized water up to a concentration of 1-2.10⁷ cfu/ml.
(§3) A few mg of the products, according to the invention were weighed sufficient for preparing parent solutions in DMSO + NaOH (1N) containing 2560 µg/ml (64µg/ml/dish). From the thus prepared parent solutions there were prepared 12 serial dilutions (1:2) down to the concentration of 1.25 µg/ml.
(§4) 0.5 ml of the different dilutions of each product were distributed on dishes containing 19.5 ml of agarized medium (TSA), maintained in a fluid state at the temperature of 50°C. After slight stirring, the dishes were made to solidify and dry under hood (laminar flow).
(§5) The MIC tests (Least or "Minimum" Inhibiting Concentration) were performed by using a Steers multiwell inoculator having 36 wells, each containing 200 µl of bacterial suspension.
(§6) After inoculation, the dishes were placed into a thermostat and checked after 24 h of incubation at 35°C.
(§7) The MIC is defined as the lowermost product concentration (µg/ml) inhibiting the visible growth of the microorganisms.

Gram + = assay: MIC test, average over the 5 gram-positive test germs; conditions: 24 h
Procedure: as §1, §2, §3, §4, §5, §6, §7

Escherichia coli ISF 432 = assay: MIC test, agar dilution with Steers multiwell inoculator; conditions: ISF432, TSA dishes, 24 h at 35°C, read-out: Minimum Inhibiting Concentration
Procedure: as §1, §2, §3, §4, §5, §6, §7

[1] = tested on: Staphylococcus aureus ATCC 6538; assay: as above; conditions: ATCC6538, TSA dishes, 24 h at 35°C, read-out: Minimum Inhibiting Concentration
Procedure: as §1, §2, §3, §4, §5, §6, §7

Proteus vulgaris CNUR 6 = assay: as above; conditions: CNUR6, TSA dishes, 24 h at 35°C, read-out: Minimum Inhibiting Concentration
Procedure: as §1, §2, §3, §4, §5, §6, §7

Escherichia coli 120 = assay: as above; conditions: TSA dishes, 24 h at 35°C, read-out: Minimum Inhibiting Concentration
Procedure: as §1, §2, §3, §4, §5, §6, §7

[2] = tested on: Pseudomonas aeruginosa CNUR 4; assay: as above; conditions: CNUR4, TSA dishes, 24 h at 35°C, read-out: Minimum Inhibiting Concentration
Procedure: as §1, §2, §3, §4, §5, §6, §7

[3] = tested on: Escherichia coli ATCC 8739; assay: as above; conditions: ATCC8739, TSA dishes, 24 h at 35°C, read-out: Minimum Inhibiting Concentration
Procedure: as §1, §2, §3, §4, §5, §6, §7

[4] = tested on: Providencia stuardii CNUR 5; assay: as above; conditions: CNUR5, TSA dishes, 24 h at 35°C, read-out: Minimum Inhibiting Concentration
Procedure: as §1, §2, §3, §4, §5, §6, §7

[5] = tested on: Staphylococcus epidermidis HCF Berset C.; assay: as above; conditions: TSA dishes, 24 h at 35°C, read-out: Minimum Inhibiting Concentration
Procedure: as §1, §2, §3, §4, §5, §6, §7

Escherichia coli CNUR 8 = assay: as above; conditions: CNUR8, TSA dishes, 24 h at 35°C, read-out: Minimum Inhibiting Concentration
Procedure: as §1, §2, §3, §4, §5, §6, §7

Shighella enteritidis = assay: as above; conditions: TSA dishes, 24 h at 35°C, read-out: Minimum Inhibiting Concentration
Procedure: as §1, §2, §3, §4, §5, §6, §7

[6] = tested on: Acinebacter calcoloaceticus OSMPV 1130; assay: as above; conditions: TSA dishes, 24 h at 35°C, read-out: Minimum Inhibiting Concentration
Procedure: as §1, §2, §3, §4, §5, §6, §7

[7] = tested on: Enterobacter cloacae OMNF 1153; assay: as above; conditions: OMNF1153, TSA dishes, 24 h at 35°C, read-out: Minimum Inhibiting Concentration
Procedure: as §1, §2, §3, §4, §5, §6, §7

[8] = tested on: Staphylococcus epidermidis CPHL A2; assay: as above; conditions: CPHLA2, TSA dishes, 24 h at 35°C, read-out: Minimum Inhibiting Concentration
Procedure: as §1, §2, §3, §4, §5, §6, §7

[9] = tested on: Enterobacter cloacae OMNF 1174; assay: as above; conditions: OMNF1174, TSA dishes, 24 h at 35°C, read-out: Minimum Inhibiting Concentration
Procedure: as §1, §2, §3, §4, §5, §6, §7

[10] = tested on: Pseudomonas aeruginosa CNUR 2; assay: as above; conditions: CNUR2, TSA dishes, 24 h at 35°C, read-out: Minimum Inhibiting Concentration
Procedure: as §1, §2, §3, §4, §5, §6, §7

Escherichia coli CNUR 1 = assay: as above; conditions: CNUR1, TSA dishes, 24 h at 35°C, read-out: Minimum Inhibiting Concentration
Procedure: as §1, §2, §3, §4, §5, §6, §7

[11] = tested on: Streptococcus facealis LEP Br.; assay: as above; conditions: TSA dishes, 24 h at 35°C, read-out: Minimum Inhibiting Concentration
Procedure: as §1, §2, §3, §4, §5, §6, §7

[12] = tested on: Staphylococcus aureus MPR 5; assay: as above; conditions: MPR5, TSA dishes, 24 h at 35°C, read-out: Minimum Inhibiting Concentration
Procedure: as §1, §2, §3, §4, §5, §6, §7

[13] = tested on: Klebsiella pneumoniae ATCC 10031; assay: as above; conditions: ATCC10031, TSA dishes, 24 h at 35°C, read-out: Minimum Inhibiting Concentration
Procedure: as §1, §2, §3, §4, §5, §6, §7

[14] = tested on: Pseudomonas aeruginosa ATCC 9027; assay: as above; conditions: ATCC9027, TSA dishes, 24 h at 35°C, read-out: Minimum Inhibiting Concentration
Procedure: as §1, §2, §3, §4, §5, §6, §7

[15] = geometrical average of the MIC over the 15 Gram - strains, read-out: Geometrical Average
[16] = mean log of the MIC over the 15 Gram - strains, read-out: Log (converted)
[17] = geometrical average of the MIC over the 5 Gram + strains, read-out: Geometrical Average

Structure (SMILES)	MIC (Gram -; [15]) [µg/mL]	MIC (Gram -; [16]) [µg/mL]	MIC (Gram +; [17]) [µg/mL]	MIC (Gram +; read-out: Log (converted)) [µg/mL]	MIC (Escherichia coli ISF 432) [µg/mL]	MIC [1] [µg/mL]	MIC (Proteus vulgaris CNUR 6) [µg/mL]	MIC (Escherichia coli 120) [µg/mL]	MIC [2] [µg/mL]	MIC [3] [µg/mL]	MIC [4] [µg/mL]	MIC [5] [µg/mL]	MIC (Escherichia coli CNUR 8) [µg/mL]	MIC (Shighella enteritidis) [µg/mL]	MIC [6] [µg/mL]	MIC [7] [µg/mL]	MIC [8] [µg/mL]	MIC [9] [µg/mL]	MIC [10] [µg/mL]	MIC (Escherichia coli CNUR 1) [µg/mL]	further results
CN1CCN(c2nc3c(cc2N)c(=O)c(C(=O)O)cn3C2CC2)CC1 [Compound 40, chlorhydrate of the 6-amino-1-cyclopropyl-7-(4-methyl-1-piperazinyl)-1,4-dihydro-4-oxo-1,8-naphthyridine carboxylic acid]	0.466	0.466	6.06	6.07	0.03	4	64	0.06	64	0.12	2	4	0.06	0.12	2	0.12	4	0.12	4	0.12	MIC [11]: 32 µg/mL; MIC [12]: 4 µg/mL; MIC [13]: 0.03 µg/mL; MIC [14]: 2 µg/mL
Cc1c(N2CCSCC2)c(N)cc2c(=O)c(C(=O)O)cn(C3CC3)c12 [Compound 35]	0.863 (≈ 2.4 µM)	0.863 (≈ 2.4 µM)	0.574	0.574 (≈ 1.6 µM)	0.06 (≈ 0.167 µM)	0.25 (≈ 0.696 µM)	64 (≈ 178 µM)	0.25 (≈ 0.696 µM)	64 (≈ 178 µM)	0.06 (≈ 0.167 µM)	1 (≈ 2.78 µM)	1 (≈ 2.78 µM)	0.25 (≈ 0.696 µM)	0.5 (≈ 1.39 µM)	1 (≈ 2.78 µM)	0.5 (≈ 1.39 µM)	0.5 (≈ 1.39 µM)	1 (≈ 2.78 µM)	8 (≈ 22.3 µM)	0.5 (≈ 1.39 µM)	MIC [11]: 2 µg/mL (≈ 5.56 µM); MIC [12]: 0.25 µg/mL (≈ 0.696 µM); MIC [13]: 0.03 µg/mL (≈ 0.0835 µM); MIC [14]: 4 µg/mL (≈ 11.1 µM)
CN1CCN(c2c(F)cc3c(=O)c(C(=O)O)cn4c3c2SCC4)CC1 [RUFLOXACIN, reference compound]	1.31 (≈ 3.61 µM)	1.31 (≈ 3.61 µM)	1.51	1.52 (≈ 4.17 µM)	0.06 (≈ 0.165 µM)	0.5 (≈ 1.38 µM)	16 (≈ 44 µM)	0.25 (≈ 0.688 µM)	64 (≈ 176 µM)	0.5 (≈ 1.38 µM)	2 (≈ 5.5 µM)	2 (≈ 5.5 µM)	0.5 (≈ 1.38 µM)	0.5 (≈ 1.38 µM)	2 (≈ 5.5 µM)	1 (≈ 2.75 µM)	1 (≈ 2.75 µM)	0.5 (≈ 1.38 µM)	32 (≈ 88.1 µM)	0.5 (≈ 1.38 µM)	MIC [11]: 8 µg/mL (≈ 22 µM); MIC [12]: 1 µg/mL (≈ 2.75 µM); MIC [13]: 0.12 µg/mL (≈ 0.33 µM); MIC [14]: 8 µg/mL (≈ 22 µM)
Nc1cc2c(=O)c(C(=O)O)cn(C3CC3)c2cc1N1CCNCC1 [Compound 9]	1.26 (≈ 3.82 µM)	1.26 (≈ 3.83 µM)	42.2	42.2 (≈ 128 µM)	0.03 (≈ 0.0914 µM)	64 (≈ 195 µM)	32 (≈ 97.5 µM)	0.25 (≈ 0.761 µM)	64 (≈ 195 µM)	0.25 (≈ 0.761 µM)	32 (≈ 97.5 µM)	16 (≈ 48.7 µM)	0.25 (≈ 0.761 µM)	0.5 (≈ 1.52 µM)	16 (≈ 48.7 µM)	0.5 (≈ 1.52 µM)	16 (≈ 48.7 µM)	0.25 (≈ 0.761 µM)	8 (≈ 24.4 µM)	0.25 (≈ 0.761 µM)	MIC [11]: 128 µg/mL (≈ 390 µM); MIC [12]: 64 µg/mL (≈ 195 µM); MIC [13]: 0.25 µg/mL (≈ 0.761 µM); MIC [14]: 2 µg/mL (≈ 6.09 µM)
Nc1cc2c(=O)c(C(=O)O)cn(C3CC3)c2c(F)c1N1CCSCC1 [Compound 23]	1.04 (≈ 2.85 µM)	1.04 (≈ 2.85 µM)	0.758	0.759 (≈ 2.09 µM)	0.06 (≈ 0.165 µM)	0.5 (≈ 1.38 µM)	64 (≈ 176 µM)	0.25 (≈ 0.688 µM)	64 (≈ 176 µM)	0.12 (≈ 0.33 µM)	0.5 (≈ 1.38 µM)	1 (≈ 2.75 µM)	0.25 (≈ 0.688 µM)	4 (≈ 11 µM)	1 (≈ 2.75 µM)	1 (≈ 2.75 µM)	0.5 (≈ 1.38 µM)	1 (≈ 2.75 µM)	8 (≈ 22 µM)	0.5 (≈ 1.38 µM)	MIC [11]: 4 µg/mL (≈ 11 µM); MIC [12]: 0.25 µg/mL (≈ 0.688 µM); MIC [13]: 0.03 µg/mL (≈ 0.0826 µM); MIC [14]: 4 µg/mL (≈ 11 µM)
CC(C)(C)n1cc(C(=O)O)c(=O)c2cc(N)c(N3CCSCC3)cc21 [Compound 46, 6-amino-1-terbutyl-7-(1-thiomorpholinyl)-1,4-dihydro-4-oxo-quinoline carboxylic acid]	1.31 (≈ 3.62 µM)	1.31 (≈ 3.62 µM)	0.66	0.659 (≈ 1.82 µM)	0.03 (≈ 0.083 µM)	0.25 (≈ 0.692 µM)	128 (≈ 354 µM)	0.25 (≈ 0.692 µM)	128 (≈ 354 µM)	0.06 (≈ 0.166 µM)	4 (≈ 11.1 µM)	0.5 (≈ 1.38 µM)	0.25 (≈ 0.692 µM)	2 (≈ 5.53 µM)	0.5 (≈ 1.38 µM)	2 (≈ 5.53 µM)	0.5 (≈ 1.38 µM)	2 (≈ 5.53 µM)	16 (≈ 44.3 µM)	1 (≈ 2.77 µM)	MIC [11]: 8 µg/mL (≈ 22.1 µM); MIC [12]: 0.25 µg/mL (≈ 0.692 µM); MIC [13]: 0.03 µg/mL (≈ 0.083 µM); MIC [14]: 4 µg/mL (≈ 11.1 µM)
